# Results as given in US11999737B2, “Kinase inhibitors and related methods of use” (Duke University, priority 2014, dated 2024).
# Key:
# [1] = system: RLC20 phosphorylation; test: RLC20 phosphorylation in serum-starved aortic smooth muscle cells; format: cell-based, mouse; details: 30 min
# Protocol: A, Typical myograph force trace showing the effect of HS38 on intact mouse aorta contractility. The maximum contractile force of PE-induced contraction was reduced by approximately 30% when HS38 (10 μM) was added five minutes prior to PE addition and by approximately 40% when added ten minutes after PE addition. B, Serum-starved aortic SM cells were treated with SIP (0.25 μM) and HS-38 (±50 μM) for 30 min.
# For Western blots, tissues and cultured cells were lysed in 1% SDS, NaCl (300 mM), Tris-HCl (50 mM, pH 7.5), subjected to SDS-PAGE, transferred to polyvinylidene difluoride membrane (Millipore) and visualized using the Odyssey System (Li-Cor). For Odyssey imaging, the membranes were blocked with Odyssey Blocking Buffer and then subjected to anti-MYPT1 (1:2,000) (BD Transduction), phospho-MYPT1 (Thr696) (1:1,000) (Millipore), RLC20 (1:2000) (Sigma) and phospho-RLC20 (1:1000) (Cell Signaling Technology) antibodies. Antibodies were diluted in appropriate blocking buffer. The membranes were washed in TBS with 0.05% Tween 20. Primary antibodies were visualized using secondary antibodies conjugated to Alexa 680 (Invitrogen) or IRDye800 (Li-Cor).
# Cell Culture: Mouse aortic SM cells were prepared. The cell line was cultured in AmnioMax medium (Gibco) supplemented with 10% embryonic stem cell-qualified fetal bovine serum (Invitrogen) and penicillin-streptomycin (Invitrogen). […]
# [2] = system: rabbit ileum; test: Carbachol-induced Ca2+-sensitized force in α-toxin permeabilized rabbit ileum; details: HS38 50 μM, at 20 min, pCa 6.5
# Protocol: A. Typical force trace and graphical representation showing the effect of HS38 (50 μM) on carbachol-induced, Ca^2+ sensitized force in α-toxin permeabilized rabbit ileum. HS38 induced an approximate 30% decrease in the plateaued force at 20 min. (mean±S.E., n=7). B, Western blot analysis of RLC20 and MYPT1 Thr696 phosphorylation following treatment with HS38 (50 μM). […] C. Typical force trace showing the effect, of HS38 on Ca^2+-independent force production in rabbit ileum smooth muscle. […] E. Both the lag time to the onset of force (p <0.05, n=3) and the rate of force development (t1/2) (p <0.02, n=3) were increased following the addition of MC-LR in the presence of HS38 (mean±S.E., n=3).
# Tissue Preparation and Force Measurements. […] Intact strips of mouse abdominal aorta were challenged with phenylephrine following pretreatment with HS38 or diluent, DMSO or HS38 and DMSO were added after maximal phenylephrine-induced force was achieved and force output measured. […] For Ca^2+ activating solutions, EGTA (10 mM) and a calculated amount of Ca-methanesulfonate was added to give the desired free Ca^2+ concentration ((Horiuti (1988) J. Physiol.-London 398, 131-148). […]
# [3] = system: RLC20 phosphorylation; test: Western blot of RLC20 phosphorylation in Ca2+-sensitized rabbit ileum; details: HS38 50 μM
# Protocol: To examine the effect of ZIPK inhibition on sensitized force, muscle strips were stimulated with an intermediate calcium concentration solution (pCa 6.5). Once force reached a plateau, strips were Ca^2+-sensitized by the addition of the agonist carbachol (5 μM). Up to 2 μM of GTP was added together with the sensitizing agonist to compensate for possible loss of GTP during permeabilization. At the plateau of Ca-sensitized force (5-10 min upon stimulation), the ZIPK inhibitor, HS38 (50 μM) or diluent (0.1% DMSO) was added and the force relaxation time course was recorded. Tissue samples were frozen 20 min after the addition of HS38 for biochemical assays of RLC20 and MYPT1 phosphorylation.
# MYPT1 and RLC20 phosphorylation: To examine the phosphorylation of MYPT1 and RLC20, rabbit ileum SM strips were treated as described above and previously reported. (Gong et al. (1995), J. Physiol.-London 486, 113-122; Kitazawa et al. (1989) J. Biol. Chem. 264, 5339-5342; Kobayashi et al. (1991) Am. J. Physiol. 260, C364-C370), Following the stimulation protocols, muscle strips were immediately frozen by immersion in −80° C. acetone with trichloroacetic acid (10% w/v) and stored at −80° C. […] Phosphorylation of MYPT1 Thr696 and of RLC20 was determined by SDS-PAGE and Western blotting. […]
# [4] = system: LC20 phosphorylation; design: species or system rat
# [5] = system: LC20 monophosphorylation; design: species or system rat
smiles,measurement,setting,value
CC(Sc1nc2c(cnn2-c2cccc(Cl)c2)c(=O)[nH]1)C(N)=O (stereo not drawn) [HS38],"RLC20 phosphorylation, basal (unstimulated) state","[1]; 50 μM, p <0.0002, n=8",significantly decreased
same,"RLC20 phosphorylation, S1P stimulated state","[1]; S1P 0.25 μM, HS38 50 μM, p <0.004, n=8",significantly decreased
same,decrease in plateaued carbachol-induced Ca2+-sensitized force,[2],~30%
same,RLC20 phosphorylation level,[3],significantly reduced
same,LC20 mono- and diphosphorylation,[4],time-dependent attenuations
same,levels of LC20 monophosphorylation induced by KCl and Ang II,[5],could attenuate
